Test results as given in patent US3969385A, “Ethyl 10-methoxy-3,7,11-trimethyldodeca-2,4-dienoate” (Zoecon Corporation, priority 1974, dated 1976).

Experiments:
Assay type in all cases: in vivo
[1] = tested on: Greater Wax Moth (Galleria mellonella) pupae; assay: Greater Wax Moth (Galleria mellonella) pupae, retention of pupal characters (graded-response score); conditions: for ID50: Galleria mellonella pupae <24 h old, 1 μl acetone solution applied to mouth-parts, scored after 10 days at 31°, 50% effect level; for Galleria ID50: Table 1 summary
Procedure: Greater Wax Moth (Galleria mellonella) pupae less than 24-hours old were collected after mature larvae from a mass colony were allowed to pupate in glass tubes treated with Siliclad solution (modification of a technique described by De Wilde et al., 1968) and then freed of the cocoon with a dilute Chlorox solution. Starvation of mature larvae was employed to produce highly synchronous pupation. One microliter of acetone solution containing 100, 10, 1, 0.1, 0.01, or 0.001μg of compound was applied to the mouth-parts of each test pupa. In each test series, the control pupae were treated only with 1 microliter of acetone. Treated pupae were allowed to develop for 10 days at 31° and then scored for both retention of pupal characters and adult emergence. For the retention of pupal characters, the following scoring system was used: 0=normal adult; 1=minor pupal rudimentary mandibles only; 2=as in 1, but also pupal cuticle patches at the base of the proboscis; 3=extensive pupal cuticle formation at base of proboscis, slight pupal characters in intersegmental membranes in legs; 4=proboscis entirely pupal, larger than normal, legs with extensive pupal zones; 5=merging pupal bands on legs, specimen with only a few adult setae, essentially "a second pupa."
The graded-response score was calculated as a percentage of the maximum attainable (n×5) and plotted against the dose on semilogarithmic paper. The ID50 dose is taken from the intersection of this plotted line with the 50% effect level.

[2] = tested on: Philosamia cynthia eggs; assay: Philosamia cynthia eggs, hatch prevention; conditions: Table 1 summary
Procedure: Philosamia cynthia eggs less than 24-hours old were removed from the colony and placed on black electrical tape, 15 eggs per tape. One microliter of acetone solution containing […] of compound was applied to each egg. The control eggs were treated only with acetone. The eggs were kept at 28°C for 10 days at which time the number of eggs hatched was observed and plotted against the dosed on semilogarithmic paper. The ID50 dose is taken from the intersection of this plotted line with the 50% hatch prevented line.

[3] = tested on: Tobacco budworm (Heliothis virescens) larvae; assay: Tobacco budworm (Heliothis virescens) larvae, diet test, morphogenetic scoring; conditions: for ID50: Heliothis virescens unfed first instar larvae, compound mixed in diet, 25°, 16 hr photophase; for Heliothis ID50: Table 1 summary, in diet
Procedure: Tobacco budworm (Heliothis virescens) larvae were reared in mass culture on a modified Van der Zandt artificial diet based on agar, lima beans, split peas, torula yeast plus vitamins, minerals and bacteriostatic additives. Compounds to be tested were mixed as acetone solutions with this diet while it was still warm and not yet solidified (7.5 ml. of medium in 15 ml. tubes). Unfed first instar larvae were collected from the mass rearing and distributed in the glass tubes (one larva per tube, 15 tubes per dose level). The tubes with larvae were then capped with a firm cotton plug and placed on racks in a culture room at 25° and 16 hr photophase (low intensity fluorescent light). The normal interval until pupation under these conditions was ca. 16 days.
Individual specimens were preserved in ethanol within a few days after pupation and stored until the entire series was thus preserved. The test results were then evaluated with the following scoring system: 0= normal pupa; 1=pupa of normal shape and appearance except for very minor abnormalities such as minute rudiments of larval mouthparts, larval tubercles, etc. The ultimate viability of these pupa was not investigated; 2=unviable intermediates between larvae and pupae ranging from almost perfect supernumerary larval instars (frequently with some pupal cuticle on the antennae only) to pupae with pronounced prolegs, patches of larval cuticle, etc. […] The results were added and expressed as a percentage of the possible total. ID50 doses were determined by interpolation on semilogarithmic paper. Dead larvae were generally excluded from the score, unless death was obviously a consequence of morphogenetic abnormalities and the specimens could be scored as above.

| SMILES | ID50 [1] | Galleria ID50 [1] | Cynthia ID50 [2] | ID50 [3] | Heliothis ID50 [3] |
| --- | --- | --- | --- | --- | --- |
| CCOC(=O)C=C(C)C=CCC(C)CCC(OC)C(C)C (stereo not shown) [ethyl 10-methoxy-3,7,11-trimethyldodeca-2,4-dienoate] | 0.0030 μg per pupa | 0.0030 μg/pupa | 0.000032 μg/egg | 0.024 parts per million | 0.024 ppm |
| CCOC(=O)C=C(C)C=CCC(C)CCCC(C)(C)OC (stereo not shown) [ethyl 11-methoxy-3,7,11-trimethyldodeca-2,4-dienoate] | 0.180 μg per pupa | 0.180 μg/pupa | 0.00077 μg/egg | 0.340 parts per million | 0.340 ppm |
